biological target: T1, LRRK2 G2019S mutant kinase (Homo sapiens, UniProt Q5S007, G2019S); assay: LRRK2 G2019S LanthaScreen TR-FRET kinase assay; format: biochemical; conditions: LRRK2 G2019S GST-tagged protein, 100 μM ATP, LRRKtide substrate; read-out: IC50 (potency)
T1 construct: GST; purchased Invitrogen PV4882
Protocol: Activity of compounds against LRRK2 G2019S mutant kinase function was tested in a LANTHAScreen® assay as follows: Compounds were diluted in 100% DMSO to the desired test concentrations in white, low-volume 384-well plates (PerkinElmer ProxiPlate® PN: 6008280). TR-FRET kinase reactions (10 μL) were performed with 75 nM Fluorescein-ERM (LRRKtide, Invitrogen, PN:PV4901) substrate in a final assay buffer containing 100 μM ATP and 2 mM DTT diluted in commercially available Kinase Buffer S (Invitrogen PN: PV5213). The final solvent concentration in the assay was 1% DMSO. Reactions were initiated with the addition of 10 ng/well of LRRK2 02019S, GST-tagged protein (Invitrogen PN: PV4882). After incubation of the foil sealed reaction plates at room temperature with low speed mixing for 1 hour, the kinase reaction was stopped and the amount of substrate phosphorylation was detected by addition of 10 μL of 10 mM EDTA and 2 nM Tb-anti-pERM (pLRRKtide antibody, Invitrogen, PN: PV4898) antibody in TR-FRET dilution buffer (Invitrogen PN: PV3574). After a 30 minute incubation at room temperature with low speed mixing, foil seals were removed and measurements were obtained on a PerkinElmer EnVision with excitation 340 nm, emission 520 nm (channel 1): 495 nm (channel 2) settings. Generation of raw data and workup of data to derive the IC50 (potency) and maximal inhibition at concentrations tested were performed using Merck's Assay Data Analyzer (ADA) software.

T1 sequence (Q5S007 whole entry G2019S): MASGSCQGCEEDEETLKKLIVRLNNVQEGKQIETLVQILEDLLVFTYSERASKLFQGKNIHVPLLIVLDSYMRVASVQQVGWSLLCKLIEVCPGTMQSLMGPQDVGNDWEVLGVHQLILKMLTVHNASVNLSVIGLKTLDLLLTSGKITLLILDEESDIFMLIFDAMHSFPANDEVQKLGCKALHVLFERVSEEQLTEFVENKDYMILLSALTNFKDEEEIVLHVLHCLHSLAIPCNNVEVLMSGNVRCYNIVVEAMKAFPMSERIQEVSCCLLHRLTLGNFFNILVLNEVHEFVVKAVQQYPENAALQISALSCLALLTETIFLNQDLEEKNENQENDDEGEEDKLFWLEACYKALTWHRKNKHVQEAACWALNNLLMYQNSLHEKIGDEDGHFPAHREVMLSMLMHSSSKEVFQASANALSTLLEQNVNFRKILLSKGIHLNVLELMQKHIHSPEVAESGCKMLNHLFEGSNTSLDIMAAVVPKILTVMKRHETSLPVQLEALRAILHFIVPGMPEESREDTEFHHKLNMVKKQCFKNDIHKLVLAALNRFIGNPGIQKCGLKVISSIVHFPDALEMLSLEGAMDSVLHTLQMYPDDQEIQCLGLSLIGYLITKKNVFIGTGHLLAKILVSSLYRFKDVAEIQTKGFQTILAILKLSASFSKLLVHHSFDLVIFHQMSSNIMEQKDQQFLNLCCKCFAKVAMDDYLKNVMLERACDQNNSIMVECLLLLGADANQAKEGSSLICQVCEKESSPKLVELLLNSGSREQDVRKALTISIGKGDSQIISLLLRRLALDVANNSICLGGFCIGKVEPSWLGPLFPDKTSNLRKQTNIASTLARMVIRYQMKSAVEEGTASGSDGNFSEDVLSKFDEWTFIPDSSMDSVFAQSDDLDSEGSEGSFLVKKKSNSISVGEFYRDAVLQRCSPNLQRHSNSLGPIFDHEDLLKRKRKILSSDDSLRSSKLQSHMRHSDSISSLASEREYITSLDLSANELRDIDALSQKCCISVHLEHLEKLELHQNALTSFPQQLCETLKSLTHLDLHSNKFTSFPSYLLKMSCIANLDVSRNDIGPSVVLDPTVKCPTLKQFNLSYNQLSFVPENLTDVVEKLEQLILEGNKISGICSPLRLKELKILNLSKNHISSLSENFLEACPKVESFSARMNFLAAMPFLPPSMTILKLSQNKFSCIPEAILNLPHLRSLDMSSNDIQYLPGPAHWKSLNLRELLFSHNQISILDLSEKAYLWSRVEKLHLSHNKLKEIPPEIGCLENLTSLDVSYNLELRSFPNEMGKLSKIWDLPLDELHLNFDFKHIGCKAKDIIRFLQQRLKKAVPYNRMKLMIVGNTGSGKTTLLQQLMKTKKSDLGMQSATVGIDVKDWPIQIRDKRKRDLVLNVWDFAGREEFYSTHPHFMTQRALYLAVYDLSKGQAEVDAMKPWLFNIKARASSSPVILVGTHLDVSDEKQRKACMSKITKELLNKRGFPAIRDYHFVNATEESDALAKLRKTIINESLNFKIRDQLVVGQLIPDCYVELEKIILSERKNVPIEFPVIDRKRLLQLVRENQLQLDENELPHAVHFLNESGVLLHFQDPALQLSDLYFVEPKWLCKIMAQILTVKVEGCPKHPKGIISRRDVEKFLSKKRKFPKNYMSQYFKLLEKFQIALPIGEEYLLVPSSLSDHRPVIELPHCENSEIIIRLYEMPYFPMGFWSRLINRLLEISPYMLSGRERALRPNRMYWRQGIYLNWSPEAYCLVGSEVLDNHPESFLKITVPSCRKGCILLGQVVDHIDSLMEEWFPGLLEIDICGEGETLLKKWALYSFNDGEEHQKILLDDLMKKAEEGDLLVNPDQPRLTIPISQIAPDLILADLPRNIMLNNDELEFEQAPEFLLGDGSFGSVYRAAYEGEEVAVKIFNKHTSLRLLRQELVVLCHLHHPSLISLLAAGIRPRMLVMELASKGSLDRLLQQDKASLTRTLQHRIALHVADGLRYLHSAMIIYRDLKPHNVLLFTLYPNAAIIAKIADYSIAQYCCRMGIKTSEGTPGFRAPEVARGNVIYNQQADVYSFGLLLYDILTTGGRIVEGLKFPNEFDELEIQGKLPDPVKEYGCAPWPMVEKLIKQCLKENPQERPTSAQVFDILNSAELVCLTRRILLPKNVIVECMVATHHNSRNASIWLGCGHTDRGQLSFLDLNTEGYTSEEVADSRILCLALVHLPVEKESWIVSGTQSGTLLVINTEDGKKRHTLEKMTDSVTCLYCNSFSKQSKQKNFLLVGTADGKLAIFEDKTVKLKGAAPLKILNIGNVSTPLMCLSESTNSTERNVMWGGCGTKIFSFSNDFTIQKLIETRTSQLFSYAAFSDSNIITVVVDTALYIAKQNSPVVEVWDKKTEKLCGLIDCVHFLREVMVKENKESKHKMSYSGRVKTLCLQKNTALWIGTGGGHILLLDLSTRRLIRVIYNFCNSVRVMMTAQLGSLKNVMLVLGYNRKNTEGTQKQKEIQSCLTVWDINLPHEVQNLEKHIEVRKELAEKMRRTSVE

**Q.** `CCNc1sc(-c2cc[nH]n2)c2c1C(=O)CC(C)(C)C2` [Example 38, 3-(Ethylamino)-6,6-dimethyl-1-(1H-pyrazol-3-yl)-6,7-dihydro-2-benzothiophen-4(5H)-one] was tested. Which IC50 did it give?
**A.** Its IC50 is 290 nM.

**Q.** How did the IC50 turn out when `CC1(C)CC(=O)c2c(NC3CCCCC3)sc(-c3cc[nH]n3)c2C1` [Example 39, 3-(Cyclohexylaminn)-6,6-dimethyl-1-(1H-pyrazol-3-yl)-6,7-dihydro-2-benzothiophen-4(5H)-one] was run?
**A.** The IC50 was 240 nM.

**Q.** `CC1(C)CC(=O)c2c(N3CCC3)sc(-c3cc[nH]n3)c2C1` [Example 40, 3-(Azetidin-1-yl)-6,6-dimethyl-1-(1H-pyrazol-3-yl)-6,7-dihydro-2-benzothiophen-4(5H)-one] was tested. Which IC50 did it give?
**A.** The IC50 was 580 nM.

**Q.** With `CN(C)c1sc(-c2cc[nH]n2)c2c1C(=O)CC(C)(C)C2` [Example 41, 3-(Dimethylamino)-6,6-dimethyl-1-(1H-pyrazol-3-yl)-6,7-dihydro-2-benzothiophen-4(5H)-one] as the compound, how does the IC50 read?
**A.** The IC50 was 2000 nM.

**Q.** With `CN1CCN(CCCNc2sc(-c3cc[nH]n3)c3c2C(=O)CC(C)(C)C3)CC1` [Example 42, 6,6-Dimethyl-3-{[3-(4-methylpiperazin-1-yl)propyl]amino}-1-(1H-pyrazol-3-yl)-6,7-dihydro-2-benzothiophen-4(5H)-one] as the compound, how does the IC50 read?
**A.** Its IC50 is 420 nM.

**Q.** `CN1CCN(c2sc(-c3cc[nH]n3)c3c2C(=O)CC(C)(C)C3)CC1` [Example 43, 6,6-Dimethyl-3-(4-methylpiperazin-1-yl)-1-(1H-pyrazol-3-yl)-6,7-dihydro-2-benzothiophen-4(5H)-one] was tested. Which IC50 did it give?
**A.** The IC50 was 4000 nM.

**Q.** How did the IC50 turn out when `CC1(C)CC(=O)c2c(NCc3ccco3)sc(-c3cc[nH]n3)c2C1` [Example 44, 3-[(Furan-2-ylmethyl)amino]-6,6-dimethyl-1-(1H-pyrazol-3-yl)-6,7-dihydro-2-benzothiophen-4(5H)-one] was run?
**A.** The IC50 was 380 nM.

**Q.** `CC1(C)CC(=O)c2c(NCCN3CCOCC3)sc(-c3cc[nH]n3)c2C1` [Example 45, 6,6-Dimethyl-3-{[2-(morpholin-4-yl)ethyl]amino}-1-(1H-pyrazol-3-yl)-6,7-dihydro-2-benzothiophen-4(5H)-one] was tested. Which IC50 did it give?
**A.** The IC50 was 250 nM.

**Q.** How did the IC50 turn out when `CC1(C)CC(=O)c2c(NC3CC3)sc(-c3cc[nH]n3)c2C1` [Example 46, 3-(Cyclopropylamino)-6,6-dimethyl-1-(1H-pyrazol-3-yl)-6,7-dihydro-2-benzothiophen-4(5H)-one] was run?
**A.** The IC50 was 210 nM.

**Q.** For `CC1(C)CC(=O)c2c(NCCc3ccccn3)sc(-c3cc[nH]n3)c2C1` [Example 47, 6,6-Dimethyl-1-(1H-pyrazol-3-yl)-3-{[2-(pyridin-2-yl)ethyl]amino}-6,7-dihydro-2-benzothiophen-4(5H)-one], which IC50 is on record?
**A.** Its IC50 is 290 nM.

**Q.** With `CC1(C)CC(=O)c2c(NCc3ccccn3)sc(-c3cc[nH]n3)c2C1` [Example 48, 6,6-Dimethyl-1-(1H-pyrazol-3-yl)-3-[(pyridin-2-ylmethyl)amino]-6,7-dihydro-2-benzothiophen-4(5H)-one] as the compound, how does the IC50 read?
**A.** The IC50 was 620 nM.

**Q.** `CC1(C)CC(=O)c2c(NC3CCCC3)sc(-c3cc[nH]n3)c2C1` [Example 49, 3-(Cyclopentylamino)-6,6-dimethyl-1-(1H-pyrazol-3-yl)-6,7-dihydro-2-benzothiophen-4(5H)-one] was tested. Which IC50 did it give?
**A.** The IC50 was 97 nM.

**Q.** How did the IC50 turn out when `CC1(C)CC(=O)c2c(NCCCCCCO)sc(-c3cc[nH]n3)c2C1` [Example 50, 3-[(6-Hydroxyhexyl)amino]-6,6-dimethyl-1-(1H-pyrazol-3-yl)-6,7-dihydro-2-benzothiophen-4(5H)-one] was run?
**A.** Its IC50 is 180 nM.

**Q.** With `CC1(C)CC(=O)c2c(N[C@H]3CC[C@H](O)CC3)sc(-c3cc[nH]n3)c2C1` [Example 51, 3-[(trans-4-Hydroxycyclohexyl)amino]-6,6-dimethyl-1-(1H-pyrazol-3-yl)-6,7-dihydro-2-benzothiophen-4(5H)-one] as the compound, how does the IC50 read?
**A.** The IC50 was 220 nM.

**Q.** With `CC1(C)CC(=O)c2c(OC3CCCC3)sc(-c3cc[nH]n3)c2C1` [Example 52, 3-(Cyclopentyloxy)-6,6-dimethyl-1-(1H-pyrazol-3-yl)-6,7-dihydro-2-benzothiophen-4(5H)-one] as the compound, how does the IC50 read?
**A.** The IC50 was 300 nM.

**Q.** `CC1(C)CC(=O)c2c(OC3CCC3)sc(-c3cc[nH]n3)c2C1` [Example 53, 3-(Cyclobutylexy)-6,6-dimethyl-1-(1H-pyrazol-3-yl)-6,7-dihydro-2-benzothiophen-4(5H)-one] was tested. Which IC50 did it give?
**A.** Its IC50 is 430 nM.

**Q.** `CC(C)Oc1sc(-c2cc[nH]n2)c2c1C(=O)CC(C)(C)C2` [Example 54, 6,6-Dimethyl-3-(propan-2-yloxy)-1-(1H-pyrazol-3-yl)-6,7-dihydro-2-benzothiophen-4(5H)-one] was tested. Which IC50 did it give?
**A.** Its IC50 is 790 nM.

**Q.** `CC1(C)CC(=O)c2c(Oc3ccccc3)sc(-c3cc[nH]n3)c2C1` [Example 55, 6,6-Dimethyl-3-phenoxy-1-(1H-pyrazol-3-yl)-6,7-dihydro-2-benzothiophen-4(5H)-one] was tested. Which IC50 did it give?
**A.** The IC50 was 4200 nM.

**Q.** How did the IC50 turn out when `CCCc1sc(-c2cc[nH]n2)c2c1C(=O)CC(C)(C)C2` [Example 56, 6,6-Dimethyl-3-propyl-1-(1H-pyrazol-3-yl)-6,7-dihydro-2-benzothiophen-4(5H)-one] was run?
**A.** Its IC50 is 2200 nM.

**Q.** For `CC(C)NC(=O)n1ccc(-c2sc(SC3CCCC3)c3c2CC(C)(C)CC3=O)n1` [Example 57], which IC50 is on record?
**A.** Its IC50 is 1400 nM.

**Q.** Which IC50 does the source give for `COc1ccc(NC(=O)n2ccc(-c3sc(SC4CCCC4)c4c3CC(C)(C)CC4=O)n2)cc1` [Example 58, 3-[3-(Cyclopentylsulfanyl)-6,6-dimethyl-4-oxo-4,5,6,7-tetrahydro-2-benzothiophen-1-yl]-N-(4-methoxyphenyl)-1H-pyrazole-1-carboxamide] here?
**A.** Its IC50 is 110 nM.

**Q.** How did the IC50 turn out when `CC1(C)CC(=O)c2c(SC3CCCC3)sc(-c3ccn(C(=O)Nc4ccc(C(F)(F)F)cc4)n3)c2C1` [Example 59, 3-[3-(Cyclopentylsulfanyl)-6,6-dimethyl-4-oxo-4,5,6,7-tetrahydro-2-benzothiophen-1-yl]-N-[4-(trifluoromethyl)phenyl]-1H-pyrazole-1-carboxamide] was run?
**A.** The IC50 was 93 nM.

**Q.** `CC1(C)CC(=O)c2c(SC3CCCC3)sc(-c3ccn(C(=O)NCc4ccccc4)n3)c2C1` [Example 60, N-benzyl-3-[3-(Cyclopentylsulfanyl)-6,6-dimethyl-4-oxo-4,5,6,7-tetrahydro-2-benzothiophen-1-yl]-1H-pyrazole-1-carboxamide] was tested. Which IC50 did it give?
**A.** The IC50 was 520 nM.

**Q.** With `CSc1cccc(NC(=O)n2ccc(-c3sc(SC4CCCC4)c4c3CC(C)(C)CC4=O)n2)c1` [Example 61, 3-[3-(Cyclopentylsulfanyl)-6,6-dimethyl-4-oxo-4,5,6,7-tetrahydro-2-benzothiophen-1-yl]-N-[3-(methylsulfanyl)phenyl]-1H-pyrazole-1-carboxamide] as the compound, how does the IC50 read?
**A.** The IC50 was 110 nM.

**Q.** Which IC50 does the source give for `CC1(C)CC(=O)c2c(SC3CCCC3)sc(-c3ccn(C(=O)Nc4ccc(Cl)cc4)n3)c2C1` [Example 62, N-(4-Chlorophenyl)-3-[3-(cyclopentylsulfanyl)-6,6-dimethyl-4-oxo-4,5,6,7-tetrahydro-2-benzothiophen-1-yl]-1H-pyrazole-1-carboxamide] here?
**A.** Its IC50 is 86 nM.

**Q.** `CC1(C)CC(=O)c2c(SC3CCCC3)sc(-c3ccn(C(=O)Nc4ccc5ccccc5c4)n3)c2C1` [Example 63, 3-[3-(Cyclopentylsulfanyl)-6,6-dimethyl-4-oxo-4,5,6,7-tetrahydro-2-benzothiophen-1-yl]-N-(naphthalen-2-yl)-1H-pyrazole-1-carboxamide] was tested. Which IC50 did it give?
**A.** The IC50 was 110 nM.

**Q.** For `CC1(C)CC(=O)c2c(SC3CCCC3)sc(-c3ccn(C(=O)Nc4ccc(C#N)cc4)n3)c2C1` [Example 64, N-(4-Cyanophenyl)-3-[3-(cyclopentylsulfanyl)-6,6-dimethyl-4-oxo-4,5,6,7-tetrahydro-2-benzothiophen-1-yl]-1H-pyrazole-1-carboxamide], which IC50 is on record?
**A.** Its IC50 is 85 nM.

**Q.** How did the IC50 turn out when `CC1(C)CC(=O)c2c(SC3CCCC3)sc(-c3ccn(C(=O)NC4CCN(C(=O)C(F)(F)F)CC4)n3)c2C1` [Example 65, 3-[3-(Cyclopentylsulfanyl)-6,6-dimethyl-4-oxo-4,5,6,7-tetrahydro-2-benzothiophen-1-yl]-N-[1-(trifluoroacetyl)piperidin-4-yl]-1H-pyrazole-1-carboxamide] was run?
**A.** The IC50 was 330 nM.

**Q.** For `COc1ccccc1NC(=O)n1ccc(-c2sc(SC3CCCC3)c3c2CC(C)(C)CC3=O)n1` [Example 66, 3-[3-(Cyclopentylsulfanyl)-6,6-dimethyl-4-oxo-4,5,6,7-tetrahydro-2-benzothiophen-1-yl]-N-(2-methoxyphenyl)-1H-pyrazole-1-carboxamide], which IC50 is on record?
**A.** Its IC50 is 110 nM.

**Q.** Which IC50 does the source give for `CC1(C)CC(=O)c2c(SC3CCCC3)sc(-c3ccn(C(=O)Nc4cccc(Cl)c4)n3)c2C1` [Example 67, N-(3-Chlorophenyl)-3-[3-(cyclopentylsulfanyl)-6,6-dimethyl-4-oxo-4,5,6,7-tetrahydro-2-benzothiophen-1-yl]-1H-pyrazole-1-carboxamide] here?
**A.** Its IC50 is 330 nM.

**Q.** For `CC1(C)CC(=O)c2c(SC3CCCC3)sc(-c3ccn(C(=O)Nc4cccc(C#N)c4)n3)c2C1` [Example 68, N-(3-Cyanophenyl)-3-[3-(cyclopentylsulfanyl)-6,6-dimethyl-4-oxo-4,5,6,7-tetrahydro-2-benzothiophen-1-yl]-1H-pyrazole-1-carboxamide], which IC50 is on record?
**A.** Its IC50 is 130 nM.

**Q.** With `CC1(C)CC(=O)c2c(SC3CCCC3)sc(-c3ccn(C(=O)NCCc4ccccc4)n3)c2C1` [Example 69, 3-[3-(Cyclopentylsulfanyl)-6,6-dimethyl-4-oxo-4,5,6,7-tetrahydro-2-benzothiophen-1-yl]-N-(2-phenylethyl)-1H-pyrazole-1-carboxamide] as the compound, how does the IC50 read?
**A.** The IC50 was 4200 nM.

Reference: patent US20130338106A1, “COMPOUNDS INHIBITING LEUCINE-RICH REPEAT KINASE ENZYME ACTIVITY” (priority 2011, published 2013)
